According to patent US10385024B2, “Compounds and methods for inhibiting NHE-mediated antiport in the treatment of disorders associated with fluid retention or salt overload and gastrointestinal tract disorders” (Ardelyx, Inc., priority 2012, dated 2019):

Experiments:
[1] = human absorption data, from Ertl et al., J. Med. Chem., 2000; cited from earlier work
human NHE-3 = target: T1, human NHE-3 (Homo sapiens, UniProt P48764); assay: Cell-based assay of NHE-3 activity (human NHE3 inhibition assay); conditions: OK cells with human NHE-3 gene, BCECF pH dye, 0-30 μM test compound; for IC50: read-out: Human NHE3 pIC50 (converted)
T1 construct: expressed in transfected cells; host or cells: Opossum kidney (OK) cells (ATCC), transfected by electroporation
T1 sequence (P48764 26-834): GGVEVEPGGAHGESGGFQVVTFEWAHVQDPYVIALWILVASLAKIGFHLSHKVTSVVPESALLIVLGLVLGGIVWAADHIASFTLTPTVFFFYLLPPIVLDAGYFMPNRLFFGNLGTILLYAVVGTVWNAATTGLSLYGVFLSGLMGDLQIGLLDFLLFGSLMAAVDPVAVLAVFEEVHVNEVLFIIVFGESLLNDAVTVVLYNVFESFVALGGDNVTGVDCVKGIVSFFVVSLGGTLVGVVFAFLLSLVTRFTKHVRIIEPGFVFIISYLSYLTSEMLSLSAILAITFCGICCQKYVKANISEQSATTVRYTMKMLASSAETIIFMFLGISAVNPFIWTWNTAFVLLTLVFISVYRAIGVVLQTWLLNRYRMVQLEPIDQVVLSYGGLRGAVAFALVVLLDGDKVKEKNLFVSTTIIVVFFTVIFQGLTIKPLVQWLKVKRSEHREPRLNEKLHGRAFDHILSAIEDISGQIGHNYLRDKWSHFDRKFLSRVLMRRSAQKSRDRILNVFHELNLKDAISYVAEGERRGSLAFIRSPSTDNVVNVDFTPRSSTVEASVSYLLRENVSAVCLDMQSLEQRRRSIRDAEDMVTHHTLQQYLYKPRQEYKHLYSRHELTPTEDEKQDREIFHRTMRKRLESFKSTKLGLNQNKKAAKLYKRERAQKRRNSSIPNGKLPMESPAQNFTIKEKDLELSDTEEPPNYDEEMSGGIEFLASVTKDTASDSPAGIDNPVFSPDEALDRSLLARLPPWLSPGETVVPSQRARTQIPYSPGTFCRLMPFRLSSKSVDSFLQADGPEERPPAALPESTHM
Outline: (§1)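 Opossum kidney cells electroporated with rat or human NHE-3, loaded with 5 μM BCECF-AM in NH4Cl-HEPES pH 7.4 for 30 min at RT, then acidified 10 min in Na+-free choline HEPES. Na+-dependent pH recovery rates from BCECF fluorescence, averaged over ≥2 replicates, gave pIC50.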

Fecal recovery = assay type: in vivo, Sprague Dawley rats; conditions: male, Sprague-Dawley, faeces; rat, 1 mg/kg oral gavage, collection time 48 h
Protocol: Three male Sprague Dawley rats were administered 1 mg/kg test compound by oral gavage. Feces were collected from study animals from 0-48 or 0-72 hours after dosing, dried by lyophilization, and homogenized. Replicate aliquots of 40-60 mg each were subjected to extraction/protein precipitation with 7:1 acetonitrile:water and centrifuged. Supernatants were diluted 1:10 in 50:50 acetonitrile:water prior to analysis by LC-MS/MS. Compound concentrations, determined by interpolation from a standard calibration curve prepared in blank feces matrix, were converted to the percentage of dosed material recovered by taking into account the total collected fecal matter. The percent recovery for each rat was reported as the mean of the calculations from replicate samples. The overall percent recovery (Fecal Recovery [%]) was reported as the mean percent recovery from three rats. Accurate quality control sample recoveries were confirmed in each run, and extraction efficiency was periodically verified.

Rat NHE-3 [2] = target: T2, Rat NHE-3 (Rattus norvegicus, UniProt P26433); assay: Cell-based assay of NHE-3 activity (persistent inhibition, after washout); conditions: OK cells with rat NHE-3 gene, 60 min incubation, recovery initiated 40 min after compound washout; for IC50: read-out: Rat NHE3 pIC50 (persistent) (converted)
T2 construct: expressed in transfected cells; host or cells: Opossum kidney (OK) cells (ATCC), transfected by electroporation
T2 sequence (P26433 29-831): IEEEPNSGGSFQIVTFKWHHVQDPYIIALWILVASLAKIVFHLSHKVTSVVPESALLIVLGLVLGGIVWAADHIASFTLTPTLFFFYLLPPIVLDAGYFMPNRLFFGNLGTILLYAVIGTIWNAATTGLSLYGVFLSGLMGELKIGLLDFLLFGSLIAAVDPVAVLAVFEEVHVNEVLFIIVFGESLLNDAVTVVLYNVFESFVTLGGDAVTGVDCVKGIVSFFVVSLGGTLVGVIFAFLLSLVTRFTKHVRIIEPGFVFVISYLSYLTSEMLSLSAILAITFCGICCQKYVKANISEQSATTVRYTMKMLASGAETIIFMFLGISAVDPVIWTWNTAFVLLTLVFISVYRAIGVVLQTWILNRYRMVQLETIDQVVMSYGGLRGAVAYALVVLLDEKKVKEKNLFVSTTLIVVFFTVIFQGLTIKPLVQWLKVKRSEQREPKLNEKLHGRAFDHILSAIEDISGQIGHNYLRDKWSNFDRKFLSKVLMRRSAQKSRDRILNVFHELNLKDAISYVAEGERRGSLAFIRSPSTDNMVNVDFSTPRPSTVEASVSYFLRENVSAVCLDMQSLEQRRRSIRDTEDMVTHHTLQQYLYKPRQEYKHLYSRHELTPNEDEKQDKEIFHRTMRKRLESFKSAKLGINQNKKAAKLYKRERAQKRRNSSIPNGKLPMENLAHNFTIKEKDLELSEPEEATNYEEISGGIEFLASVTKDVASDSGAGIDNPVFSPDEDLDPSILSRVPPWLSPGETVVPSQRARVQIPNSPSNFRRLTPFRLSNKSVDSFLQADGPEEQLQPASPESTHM
Outline: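 OK cells transiently expressing rat NHE-3 were exposed to 0-30 μM compound in NaCl-HEPES pH 7.4 for 60 min, then washed free of drug before NH4Cl/BCECF-AM loading and acid-loading in Na+-free choline buffer. Na+-dependent pH recovery rates (mean of ≥2 replicates) gave pIC50.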

[3] = Pharmacokinetic evaluation in bile; assay type: in vivo, Sprague-Dawley rats; conditions: bile duct cannulated rats, oral gavage, nominal dose 30 mg/kg, bile collected over 24 h, mean of n=3
Protocol: Bile duct cannulated (BDC) Sprague-Dawley rats were dosed with test compounds by oral gavage and a single aliquot of bile was collected via cannula over the 24 h following dosing. Bile samples were treated with acetonitrile and precipitated proteins were removed by centrifugation. Some compounds required liquid-liquid extraction using MTBE. After centrifugation, samples were diluted as appropriate in mobile phase and analyzed by LC-MS/MS. The concentrations of compounds in bile were determined by interpolation from a standard calibration curve prepared in rat bile from untreated BDC rats. Accurate recovery of quality control samples was confirmed to accept each analytical run. Concentration in bile is reported in nM and represents the mean result from n=3 rats.

Rat NHE-3 [4] = target: T2, Rat NHE-3; assay: Cell-based assay of NHE-3 activity (rat NHE-3 prompt inhibition); conditions: OK cells with rat NHE-3 gene, compound present during pH recovery; for IC50: read-out: Rat NHE3 pIC50 (prompt) (converted)
Outline: as §1

Plasma PK = assay type: in vivo, Sprague-Dawley rats; conditions: Sprague-Dawley; rat plasma, oral gavage, nominal dose 30 mg/kg, mean of n=3, sampling 0.5-4 h
Protocol: Sprague-Dawley rats (n=3) were dosed with test compounds by oral gavage. Blood was collected at 0.5, 1, 2 and 4 h via retro-orbital bleeds and processed to plasma using K2EDTA as an anticoagulant. Plasma samples were treated with acetonitrile containing an internal standard and precipitated proteins were removed by centrifugation. Supernatants were analyzed by LC-MS/MS and compound concentrations were determined by interpolation from a calibration curve prepared in plasma. Accurate recovery of quality control samples were confirmed to accept each analytical run.

[5] = test system: absorption of sodium from the intestinal lumen; assay: Inhibition of intestinal sodium absorption (urinary sodium and fecal form); assay type: in vivo, Sprague-Dawley rats; conditions: rat
Outline: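 Sprague-Dawley rats (8 weeks, n=6) dosed by oral gavage with compound or water vehicle (10 mL/kg) in late afternoon, then housed in metabolic cages. Over 16 h, urinary sodium measured by ion chromatography and expressed as % of vehicle mean; fecal form scored 1–5, averaged from two observations.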

## OC[C@H]1O[C@@H](O[C@@H]2[C@@H](CO)OC(O)(CO)[C@H]2O)[C@H](O)[C@@H](O)[C@H]1O (mixture of isomers) [lactulose]
[1]
  % FA: 0.6%

## CN1Cc2c(Cl)cc(Cl)cc2[C@H](c2cccc(S(=O)(=O)NCCOCCOCCNC(=O)NCCC(N)(CCNC(=O)NCCOCCOCCNS(=O)(=O)c3cccc([C@@H]4CN(C)Cc5c(Cl)cc(Cl)cc54)c3)CCNC(=O)NCCOCCOCCNS(=O)(=O)c3cccc([C@@H]4CN(C)Cc5c(Cl)cc(Cl)cc54)c3)c2)C1 [Example 46, (S)—N,N′-(14-amino-14-(13-(3-((S)-6,8-dichloro-2-methyl-1,2,3,4-tetrahydroisoquinolin-4-yl)phenylsulfonamido)-4-oxo-8,11-dioxa-3,5-diazatridecyl)-10,18-dioxo-3,6,22,25-tetraoxa-9,11,17,19-tetraazaheptacosane-1,27-diyl)bis(3-((S)-6,8-dichloro-2-methyl-1,2,3,4-tetrahydroisoquinolin-4-yl)benzenesulfonamide)]
Human NHE-3
  IC50: < 0.1 µM
Fecal recovery
  dose excreted: 75.8%
Rat NHE-3 [2]
  IC50: < 0.1 µM
[3]
  Concentration in Bile: 3 nM
Rat NHE-3 [4]
  IC50: < 0.1 µM

## CN1Cc2c(Cl)cc(Cl)cc2[C@H](c2cccc(S(=O)(=O)NCCOCCOCCOCCNC(=O)NCCN(CCNC(=O)NCCOCCOCCOCCNS(=O)(=O)c3cccc([C@@H]4CN(C)Cc5c(Cl)cc(Cl)cc54)c3)CCNC(=O)NCCOCCOCCOCCNS(=O)(=O)c3cccc([C@@H]4CN(C)Cc5c(Cl)cc(Cl)cc54)c3)c2)C1 [Example 52]
Human NHE-3
  Human NHE3 pIC50: C (C NHE3 pIC50 > 7)
Plasma PK
  AUC: < 19 ng·h/mL
  Cmax: < 5 ng/mL
Rat NHE-3 [2]
  Rat NHE3 pIC50 (persistent): C (C NHE3 pIC50 > 7)
Rat NHE-3 [4]
  Rat NHE3 pIC50 (prompt): B (B NHE3 pIC50 5-7)

## CC(O)C(CCC(=O)NCCOCCOCCNS(=O)(=O)c1cccc([C@@H]2CN(C)Cc3c(Cl)cc(Cl)cc32)c1)(CCC(=O)NCCOCCOCCNS(=O)(=O)c1cccc([C@@H]2CN(C)Cc3c(Cl)cc(Cl)cc32)c1)CCC(=O)NCCOCCOCCNS(=O)(=O)c1cccc([C@@H]2CN(C)Cc3c(Cl)cc(Cl)cc32)c1 (stereo partly drawn) [Example 73, N1,N7-bis(2-(2-(2-(3-((S)-6,8-dichloro-2-methyl-1,2,3,4-tetrahydroisoquinolin-4-yl)phenylsulfonamido)ethoxy)ethoxy)ethyl)-4-(3-(2-(2-(2-(3-((S)-6,8-dichloro-2-methyl-1,2,3,4-tetrahydroisoquinolin-4-yl)phenylsulfonamido)ethoxy)ethoxy)ethylamino)-3-oxopropyl)-4-(1-hydroxyethyl)heptanediamide]
Human NHE-3
  IC50: < 0.1 µM
Rat NHE-3 [2]
  IC50: < 0.1 µM
Rat NHE-3 [4]
  IC50: < 0.1 µM
[5]; fecal form score, scale 1 (normal pellet) to 5 (liquid fecal streams), group average, 3 mg/kg oral, 16 h post-dose, vehicle = 1
  FFS: 2
[5]; 3 mg/kg oral gavage, urine 16 h post-dose, asterisks = significance vs vehicle (*P<0.05, **P<0.01, ***P<0.001), read-out: uNa (% of vehicle)
  response vs control in vivo at 3 mg/kg: 35 to 75%

## C=CCc1ccccc1OCC(O)CNC(C)C (stereo not shown) [alprenolol]
[1]
  % FA: 96%

## O=C(O)P(=O)(O)O [foscarnet]
[1]
  % FA: 17%

## OC[C@@H](O)[C@@H](O)[C@H](O)[C@H](O)CO [mannitol]
[1]
  % FA: 26%

## Cc1ccccc1N1C(=O)c2cc(S(N)(=O)=O)c(Cl)cc2NC1C (stereo not shown) [metolazone]
[1]
  % FA: 64%

## O=C(O)c1cc(/N=N/c2ccc(O)c(C(=O)O)c2)ccc1O [olsalazine]
[1]
  % FA: 2.3%

## C=CCOc1ccccc1OCC(O)CNC(C)C (stereo not shown) [oxprenolol]
[1]
  % FA: 97%

## CC(C)NCC(O)COc1cccc2[nH]ccc12 (stereo not shown) [pindolol]
[1]
  % FA: 92%

## CC(=O)Nc1ccc(OCC(O)CNC(C)C)cc1 (stereo not shown) [practolol]
[1]
  % FA: 95%

## OC[C@H]1O[C@H](OC[C@H]2O[C@H](O[C@]3(CO)O[C@H](CO)[C@@H](O)[C@@H]3O)[C@H](O)[C@@H](O)[C@@H]2O)[C@H](O)[C@@H](O)[C@H]1O [raffinose]
[1]
  % FA: 0.3%

## O=C(O)c1cc(/N=N/c2ccc(S(=O)(=O)Nc3ccccn3)cc2)ccc1O [sulfasalazine]
[1]
  % FA: 12%

## CCN1CCCC1CNC(=O)c1cc(S(N)(=O)=O)ccc1OC (stereo not shown) [sulpiride]
[1]
  % FA: 36%

## NC[C@H]1CC[C@H](C(=O)O)CC1 [tranexamic acid]
[1]
  % FA: 55%
